Patent US5393786A, “Method for treating inflammation, ischemia-induced cell damage and muscular dystrophy” (priority 1993, dated 1995)
Read-outs that look alike come from different tables or passages of the source.

Columns and labels:
[1] = system: hippocampal CA1 pyramidal cell layer; test: Stroke model in rats (four-vessel occlusion), hippocampal CA1 damage
From the text: (§1) Strokes were produced in rats by occluding the four arteries that supply blood to the brain according to the following procedure. Male Wistar rats (250-280 g; Hilltop Laboratories, Scottsdale, Pa.) were anesthetized with metofane and placed into a stereotaxic instrument. A longitudinal incisio was made on the dorsal surface of the neck. The neck muscles were reflected to expose the dorsal surface of the spinal column. The two vertebral arteries were exposed where they pass through the first cervica vertebra. Both arteries were permanently occluded by the application of electrocautery. After coagulation of the vertebral arteries, the rat was removed from the stereotaxic instrument and the surgical wound was sutured. Two longitudinal incisions were then made on the ventral surface of the neck. The two common carotid arteries were exposed and dissected free from surrounding nerves and connective tissue. Reversible atraumatic clamps, fabricated mainly from silicon rubber tubing, were placed around each carotid artery in a manner such that the vessels were not traumatize or occluded. The clamps were externalized through the ventral neck incision. A suture was also placed through the neck dorsal to the carotids, esophagus and trachea, and tied loosely behind the neck. This suture is tied tightly at the time ischemia is induced in order to restrict collateral circulation reaching the brain through the dorsal muscles of the neck. The surgical wounds were then closed. After the surgery, the rats were allowed to recover for 24 hours (free access to water, but no food during this period).
(§2) On the day of testing, test compounds were administered at various times before stroke induction. Strokes (cerebral ischemia) were induced by tightening the clamps around the carotids, thereby stopping blood flow in the carotids. Rats in which strokes were successfully produced lost the righting reflex and became unresponsive to stimuli. Collateral circulatio through the dorsal neck muscles was then restricted by tightening the previously implanted suture. […] After 30 minutes of ischemia, the carotid clamps wer released, the neck suture was loosened, and blood flow to the brain was restored. Following the period of ischemia, the rats were allowed free access to food and water. Rats were again treated with test compounds at various times after the stroke. On the third day after the stroke the animals were sacrificed and their brains were removed, frozen and sectioned through the striatum and hippocampus. Sections were mounted on glass slides and stained with hematoxylin and eosin.
(§3) Two of the areas of the brain that are most susceptible to ischemia induce damage, both in rats and humans, are the CA1 pyramidal cell layer of the hippocampus and the striatal cell layer of the striatum. In animals that remain unresponsive for the 30 minute period of ischemia, the CA1 pyramidal cell layer and the striatal cell layer are completely destroyed. These layers of cells were examined microscopically in histological sections prepared from the hippocampus and striatum. Brain damage was rated according to the following scale:
(§4) 0=no damage, completely intact cell layer
(§5) 1=mild damage, onethird of cell layer dead
(§6) 2=moderate damage, twothirds of cell layer dead
(§7) 3=severe damage, complete destruction of cell layer
(§8) Damage in 10-12 sections from each brain was assessed in order to obtain a accurate estimate of damage. An average damage score was calculated for each treatment group. Scores from treated groups were compared statistically with scores from control groups which received only the vehicle used to suspend the compounds. The level of significance was determined using the Mann WhitneyU-test.

[2] = system: ischemia-induced cell damage caused by middle cerebral artery occlusion; test: Middle Cerebral Artery Occlusion Stroke Model; assay type: in vivo, male spontaneously hypertensive rats; details: saline
From the text: Strokes were also produced in rats by occluding the middle cerebral artery according to the following procedure. Male spontaneously hypertensive rats were housed in groups of three to four per cage and allowed free access to food and water. The animals were anesthetized with a mixture of 2.5% halothane and air. The anesthetized rats then underwent the following surgical procedure.
A femoral artery of each rat was cannulated to monitor mean arterial pressure and a jugular cannula was inserted in order to provide a means for administering test compounds intravenously. […] The ventral neck area and the area behind each animal's right eye were shaved and washed with antiseptic solution. The right common carotid artery was dissected free of connective tissue through a midline cervical incision and the vessel permanently occluded with a silk ligature. Next, a 1 cm incision perpendicular to, and bisecting a line between the lateral canthus of the right eye and the external auditory canal, was made to expose the temporalis muscle which was retracted and partially excised. Using a dissecting microscope, the right middle cerebral artery was exposed through a 2 mm burr hole drilled 2-3 mm rostral to the fusion of the zygomatic arch with a squamosal bone. Drilling was done under a continuous drip of a 0.9% saline solution to prevent heat injury of the underlying cortex. The dura was cut and retracted to expose the middle cerebral artery.
This artery was occluded in two ways. The first method of occlusion involved permanent cauterization of the artery so that blood flow through the artery was completely eliminated. The second method of occulsion was only temporary (lasting two hours) and involved clamping the artery with microaneurism clips. Test compounds were administered at various times before, during and after occlusion. Each animal's body temperature was maintained at 37° C. during testing using a rectal thermometer connected to a heating pad.
Twenty-four hours after tandem middle cerbral carotid artery occlusion, the test animals were sacrificed and their brains removed and frozen over dry ice. Coronal sections 20 microns thick were cut at half millimeter intervals in a cryostat at -20° C. and dried on a hot plate at 60° C. The sections were then stained with cresyl violet. […] A total infarct volume was then calculated using a computer program that summed all sectional areas measured multiplied by the interval thickness. The lower the infarcted volume obtained, the lower the amount of cell damage caused by the stroke. The level of significance was obtained using Student's "t-test".

[3] = system: striatal cell layer of the striatum; test: Stroke model in rats (four-vessel occlusion), striatal damage; assay type: in vivo, male Wistar rats
From the text: as §1, §2, §3, §4, §5, §6, §7, §8

[4] = system: adjuvant-induced arthritis (uninjected hind paw); test: Developing Adjuvant-Induced Arthritis Test in Rats; assay type: in vivo, male Lewis-Wistar rats; details: po, 720 h, AUC days 16-30
[5] = system: dystrophic mice (dy/dy); test: Muscular Dystrophy Animal Model, life span of dystrophic mice; assay type: in vivo; details: 0.03 wgt % of compound in diet; control 73 days
Procedure: Dystrophic mice (dy/dy) were obtained from Jackson Laboratories after weaning (approximately 21 days) and treatment with the compound shown in Table IV was begun at the first sign of dystrophy. The compound was administered in the diet and lifespan was measured during the course of treatment. The food and water sources were located in different parts of the cage requiring the animals to walk from the food source to the water source to survive.

[6] = Chemical Abstracts, 74, 96312e (1971); cited from earlier work
[7] = Chemical Abstracts, 78, 132326f (1973); cited from earlier work
[8] = 50 mg/kg rat weight × 29, p.o. once daily, read-out: % Inhibition of Uninjected Paw Volume Inflammation, Days 16-30

With CN(C)Cc1cc(C(C)(C)C)c(O)c(C(C)(C)C)c1.Cl [4-[(dimethylamino)methyl]-2,6-bis(1,1-dimethylethyl)phenol hydrochloride] the “Damage Score, Hippocampus” value ([1]; scale 0 (no damage)-3 (severe), mean ± SE, 50 mg/kg orally, 2% acacia, time a (15 min pre, 4 h and 24 h postischemia), control 2.7 ± 0.2) was 1.7 ± 0.3, the “Infarct Volume” value ([2]; permanent occlusion, 50/10 mg/kg i.v. (per hour), time c (15 min before occlusion, then 24 h), control 136 ± 7) was 91 ± 12 (mm)^3 and the “Infarct Volume” value ([2]; temporary occlusion, 50/50/10 mg/kg i.p./i.p./i.v. (per hour), time a (15 min before clamping, 15 min before clamp removal, then 24 h), control 114.4 ± 14.1) was 47.9 ± 3.4 (mm)^3. The “Infarct Volume” value ([2]; temporary occlusion, 50/50/10 mg/kg i.p./i.p./i.v. (per hour), time b (15 min after clamping, 15 min before clamp removal, then 24 h), control 101.7 ± 9.1) was 35.5 ± 5.3 (mm)^3, the “Infarct Volume” value ([2]; temporary occlusion, 50/50/10 mg/kg i.p./i.p./i.v. (per hour), time b, rats fasted overnight, control 61.9 ± 7.9) was 23.1 ± 4.9 (mm)^3 and the “Damage Score, Striatum” value ([3]; scale 0 (no damage)-3 (severe), mean ± SE, 50 mg/kg orally, 2% acacia, time a (15 min pre, 4 h and 24 h postischemia), control 2.6 ± 0.2) was 1.1 ± 0.2. It also gave an inhibition in vivo at 50 mg/kg ([4]; Rattus norvegicus, read-out: % Inhibition of Uninjected Paw Volume Inflammation, Days 16-30, 50 mg/kg rat weight × 29, p.o. once daily) of 94.8%.
For CN(C)Cc1cc(C(C)(C)C)c(O)c(C(C)(C)C)c1 [4-[(dimethylamino)methyl]-2,6-bis(1,1-dimethylethyl)phenol], the “Damage Score, Hippocampus” value ([1]; scale 0-3, mean ± SE, 100 mg/kg orally, 2% acacia, time b (2 h pre, 24 h postischemia), control 2.8 ± 0.2) was 0.8 ± 0.4, the “Damage Score, Striatum” value ([3]; scale 0-3, mean ± SE, 100 mg/kg orally, 2% acacia, time b (2 h pre, 24 h postischemia), control 2.5 ± 0.5) was 0.8 ± 0.3 and the inhibition in vivo at 50 mg/kg [4, 8] was 59.7%. For the same compound, the “Average Life Span” value [5] was 120 days.
In the case of CCCN(CCC)Cc1cc(C(C)(C)C)c(O)c(C(C)(C)C)c1.Cl [4-[(dipropylamino)methyl]-2,6-bis(1,1-dimethylethyl)phenol hydrochloride], the “Damage Score, Hippocampus” value ([1]; scale 0-3, mean ± SE, 100 mg/kg orally, 2% acacia, time c (30 min pre, 4 h and 24 h postischemia), control 2.5 ± 0.3) is reported as 1.0 ± 0.4, the “Infarct Volume” value ([2]; temporary occlusion, 20/5 mg/kg i.v. (per hour), time d, control 123 ± 14) is reported as 143 ± 12 (mm)^3 and the “Damage Score, Striatum” value ([3]; scale 0-3, mean ± SE, 100 mg/kg orally, 2% acacia, time c (30 min pre, 4 h and 24 h postischemia), control 1.4 ± 0.3) is reported as 1.2 ± 0.4. The inhibition in vivo at 50 mg/kg [4, 8] was 64.4%.
With CCNCc1cc(C(C)(C)C)c(O)c(C(C)(C)C)c1.Cl [4-[(ethylamino)methyl]-2,6-bis(1,1-dimethylethyl)phenol hydrochloride] the “Damage Score, Hippocampus” value ([1]; scale 0-3, mean ± SE, 20 mg/kg / 5 mg/kg per hour i.v., 10% DMSO/TWEEN 80/NaCl, time d (immediately after ischemia, then continuous 24 h), control 2.83 ± 0.12) was 1.23 ± 0.47, the “Infarct Volume” value ([2]; permanent occlusion, 20/5 mg/kg i.v. (per hour), time c, control 172 ± 19) was 122 ± 12 (mm)^3 and the “Infarct Volume” value ([2]; temporary occlusion, 10/5 mg/kg i.v., time f (one hour after clamping, then upon clamp removal for 24 h), control 128 ± 17) was 74 ± 8 (mm)^3. The “Damage Score, Striatum” value ([3]; scale 0-3, mean ± SE, 20 mg/kg / 5 mg/kg per hour i.v., 10% DMSO/TWEEN 80/NaCl, time d (immediately after ischemia, then continuous 24 h), control 2.37 ± 0.28) was 1.20 ± 0.42, the inhibition in vivo at 5 mg/kg ([4]; 5 mg/kg rat weight × 29, p.o. once daily, read-out: % Inhibition of Uninjected Paw Volume Inflammation, Days 16-30) was 27.9% and the inhibition in vivo at 10 mg/kg ([4]; 10 mg/kg rat weight × 29, p.o. once daily, read-out: % Inhibition of Uninjected Paw Volume Inflammation, Days 16-30) was 19.6%. The inhibition in vivo at 20 mg/kg ([4]; 20 mg/kg rat weight × 29, p.o. once daily, read-out: % Inhibition of Uninjected Paw Volume Inflammation, Days 16-30) was 50.8% and the inhibition in vivo at 25 mg/kg ([4]; 25 mg/kg rat weight × 29, p.o. once daily, read-out: % Inhibition of Uninjected Paw Volume Inflammation, Days 16-30) was 96.5%.
In the case of CNCc1cc(C(C)(C)C)c(O)c(C(C)(C)C)c1.Cl [4-[(methylamino)methyl]-2,6-bis(1,1-dimethylethyl)phenol hydrochloride], the “antioxidative activity of liver lipids” value [6] is listed as “increases the antioxidative activity of liver lipids”, the “liver tissue regeneration following a partial hepatectomy” value [6] is listed as “increasing liver tissue regeneration following a partial hepatectomy” and the “Damage Score, Hippocampus” value ([1]; scale 0-3, mean ± SE, 10 mg/kg / 10 mg/kg per hour i.v., saline, time d (immediately after ischemia, then continuous 24 h), control 2.4 ± 0.3) is listed as 0.75 ± 0.3. The “Damage Score, Hippocampus” value ([1]; scale 0-3, mean ± SE, 50 mg/kg / 10 mg/kg per hour i.v., saline, time d (immediately after ischemia, then continuous 24 h), control 2.6 ± 0.3) was 0.66 ± 0.3, the “Infarct Volume” value ([2]; permanent occlusion, 50 mg/kg i.v. single dose, time e (10 min before occlusion), control 140 ± 23) was 123 ± 18 (mm)^3 and the “Infarct Volume” value ([2]; permanent occlusion, 10/10 mg/kg i.v. (per hour), time c, control 145 ± 12) was 128 ± 11 (mm)^3. The “Infarct Volume” value ([2]; permanent occlusion, 20/5 mg/kg i.v. (per hour), time c, control 133 ± 16) was 112 ± 7 (mm)^3, the “Infarct Volume” value ([2]; permanent occlusion, 20/10 mg/kg i.v. (per hour), time c, control 148 ± 9) was 90 ± 18 (mm)^3 and the “Infarct Volume” value ([2]; permanent occlusion, 50/10 mg/kg i.v. (per hour), time c, control 142 ± 7) was 76 ± 12 (mm)^3. The “Damage Score, Striatum” value ([3]; scale 0-3, mean ± SE, 10 mg/kg / 10 mg/kg per hour i.v., saline, time d (immediately after ischemia, then continuous 24 h), control 2.6 ± 0.3) was 1.97 ± 0.4, the “Damage Score, Striatum” value ([3]; scale 0-3, mean ± SE, 50 mg/kg / 10 mg/kg per hour i.v., saline, time d (immediately after ischemia, then continuous 24 h), control 2.3 ± 0.4) was 1.13 ± 0.4 and the inhibition in vivo at 50 mg/kg [4, 8] was 119%.
In the case of CNCc1cc(C(C)(C)C)c(O)c(C(C)(C)C)c1 [N-methyl-3,5-di-t-butyl-4-hydroxybenzylamine], the “rate of blood deoxygenation” value [7] is given as “increase the rate of blood deoxygenation”.
